Reference: patent US7935525B2, “Inhibition of ATF2 activity to treat cancer” (Mount Sinai School of Medicine, priority 2001, dated 2011)
No end group written: not given here.

What was measured:
[1] = test system: Fas; experiment: Cell surface expression of Fas by FACS; format: cell-based, human; settings: peptide-expressing LU1205; control 122
Procedure: (§1) Treatment and apoptosis studies of stably transfected melanoma cells. Cells were exposed to UVC at 75 J/m^2 as previously described (Ronai, Z., et al., Oncogene 1998; 16:523-531). SB203580 (1-10 μM) (Calbiochem®, San Diego, Calif.), NCS (50-100 ng/ml) and mitomycin C (MMC) (0.2-1 μM) were used to treat melanoma cells. Flow cytometric analysis was performed on a FACSCalibur™ flow cytometer (Becton Dickinson) using CellQuest™ software as described previously (Nicoletti et al., J. Immunol. Methods 1991; 139:271-279). Cells were pelleted and resuspended in 0.5 ml of hypotonic buffer with 0.1% Triton X-100 containing PI (40 μg/ml) and DNase-free RNase A (1 mg/ml). Cells were incubated at 37° C. for 30 min and analyzed on a FACSCalibur™ flow cytometer (Becton Dickinson). The percentage of cells to the left of the diploid G0/1 peak, characteristic of hypodiploid cells that have lost DNA, was defined as the percentage of apoptotic cells. Analysis was performed with light scatter gating. Surface expression of Fas was determined using anti-Fas-PE antibody (PharMingen® CA) and flow cytometric analysis. Cell surface expression is measured as mean fluorescence intensity (MFI).

[2] = test system: 293T human kidney embryonic cells; experiment: Apoptosis by FACS (hypodiploid fraction); format: cell-based; settings: peptide-expressing 293T; normal growth conditions
Procedure: [Worded in the source for another cell line; this cell line is reported under the same test.] as §1

[3] = test system: human melanocytes (FOM71); experiment: Apoptosis by FACS (hypodiploid fraction); format: cell-based; settings: transient peptide expression; UV 75 J/m^2; 36 h
Procedure: as §1

[4] = test system: ATF2 target sequence (c-Jun promoter motif TGACACTA); experiment: Electrophoretic mobility shift assay with labeled AP1 oligonucleotide; format: binding, mouse; settings: control vs peptide-expressing SW1 cells
Procedure: Electrophoretic mobility shift assays were performed as described. (Ivanov and Ronada, J Biol Chem 1999; 274(20):14079-89). GST binding assays were performed with GST-peptide II as described (Adler et al., Proc Natl Acad Sci USA 1995; 92 10585-9). SW1 cells expressing control vector or peptide II were subjected to FACS analysis following their incubation with antibodies to the cell surface receptor of FAS as described above.

[5] = test system: SW1 cells; experiment: Cell cycle distribution after synchronization and serum stimulation; format: cell-based, mouse; settings: 18-24 h after serum stimulation of synchronized cells
[6] = test system: FEMX tumor cells; experiment: Growth of transplanted FEMX tumors in mice; format: in vivo
Procedure: Tumor growth and metastasis evaluation in vivo. Cell lines established in culture to constitutively or inducibly express the peptide were injected into mice subcutaneously (S.C.). LU1205, FEMX and SW-1 cells that expressed control or peptide II were trypsinized, resuspended in PBS and injected SC (1×10^6) into 6-7 week old mice in the lower flank. When the tumor reached the size of about 50 mm^3, 5 μM of SB203580 was injected into four areas of the LU1205 tumors every 4 days during a 2-week period. For FEMX tumors UCN-01 (2.5 mg/kg) was fed by gavage twice a day, three times per week for a total of 2 weeks. Tumor growth was monitored every two days. SW-1 cells expressing peptide II under tet-inducible vector were injected SC (1×10^6). When tumors reached a size of about 50 mm^3, the mice received doxycycline in their drinking water ([…]) for a total of 2-4 weeks. At the end of the experiment, the tumors were excised and weighed. The lungs and other organs were subjected to histopathological examination to detect metastatic lesions.

[7] = test system: ATF2 transcriptional activity; experiment: Jun2 promoter reporter in Jun null fibroblasts; format: cell-based

With “peptide II: N-terminal polypeptide fragment of ATF2, amino acid residues 50-100, expressed from pcDNA3 with HA-penetratin tag (EMTLKFGPARNDSVIVADQTPTPTRFLKNCEEVGLFNELASPFENEFKKAS; also: HA-penetratin tag, position not given here; UniProt P15336 50-100, looked up, fragment)” the “cell surface expression of Fas, mean fluorescence intensity” value [1] was 186, the “increase in the degree of basal apoptosis” value [2] was 5 fold and the “sensitivity to undergo UV-induced apoptosis” value [3] was “did not cause a significant increase”. The “binding of nuclear extracts to the labeled AP1 oligonucleotide” value [4] was “No significant changes”, the “number of cells in the S-phase, lower than control cell population” value [5] was 2 fold and the tumor growth ([6]; co-treatment: peptide-expressing FEMX + UCN-01) was “tumor regression”. For the same substance, the tumor cell growth ([6]; single agent: UCN-01 by gavage, or peptide expressed in tumor cells) was “grew much more slowly” and the “transcriptional activity mediated from the Jun2 promoter” value [7] was “marked inhibition”.
